The values below come from patent US7183411B2, “Naphthol, quinoline and isoquinoline-derived urea modulators of vanilloid VR1 receptor” (Janssen Pharmaceutica N.V., priority 2002, dated 2007).

Usually Ki stands for the equilibrium dissociation constant of an inhibitor or competing ligand from its target. One may read the ED50 as the dose at which the effect has come halfway, by size or by number of responders.

In assay [1] the target is T1, VR1 expressed endogenously on small rat dorsal root ganglion (DRG) neurons (Rattus norvegicus, UniProt O35433).
T1 construct: VR1 expressed endogenously on small rat dorsal root ganglion (DRG) neurons; endogenous in cells; host or cells: dissociated rat DRG neurons
T1 sequence (O35433 whole entry): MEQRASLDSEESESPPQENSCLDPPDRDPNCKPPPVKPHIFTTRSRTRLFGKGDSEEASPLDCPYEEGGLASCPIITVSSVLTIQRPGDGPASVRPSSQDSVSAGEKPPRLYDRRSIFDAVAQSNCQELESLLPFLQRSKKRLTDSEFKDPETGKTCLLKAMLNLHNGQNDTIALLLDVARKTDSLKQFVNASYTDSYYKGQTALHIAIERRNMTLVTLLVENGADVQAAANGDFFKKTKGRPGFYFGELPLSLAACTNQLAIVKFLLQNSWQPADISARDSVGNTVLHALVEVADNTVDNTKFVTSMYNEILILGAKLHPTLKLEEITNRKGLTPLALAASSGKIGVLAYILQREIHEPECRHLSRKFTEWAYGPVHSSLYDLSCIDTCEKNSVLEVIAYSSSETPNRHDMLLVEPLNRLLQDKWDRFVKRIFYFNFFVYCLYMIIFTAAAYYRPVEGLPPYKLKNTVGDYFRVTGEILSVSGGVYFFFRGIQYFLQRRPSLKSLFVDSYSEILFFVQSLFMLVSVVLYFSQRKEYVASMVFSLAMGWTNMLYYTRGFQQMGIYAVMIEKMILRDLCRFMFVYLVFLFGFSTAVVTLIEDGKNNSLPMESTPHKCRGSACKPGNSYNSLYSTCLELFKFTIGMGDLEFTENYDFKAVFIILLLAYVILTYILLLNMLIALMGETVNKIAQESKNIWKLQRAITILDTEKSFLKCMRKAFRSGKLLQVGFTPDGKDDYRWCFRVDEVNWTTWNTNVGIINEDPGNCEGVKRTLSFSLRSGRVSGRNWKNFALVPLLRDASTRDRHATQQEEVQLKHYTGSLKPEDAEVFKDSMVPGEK
The assay can be described thus: Electrophysiologic functional assay using dissociated rat DRG cells. The class given is cell-based. To be noted: read-out: In vitro functional assays Estimated pA2 (rat) (converted). How it is done:
Compounds are tested for their activity on VR1 expressed endogenously on small rat dorsal root ganglion (DRG) neurons. DRG neurons from normal rats were dissociated (see methods in Chaplan et al., 2003) and whole cell currents mediated by VR1 were recorded using the whole cell patch clamp technique.

The target of assay [2] is T2, human VR1 vanilloid receptors (Homo sapiens, UniProt Q8NER1).
T2 construct: expressed in transfected cells; host or cells: HEK293
T2 sequence (Q8NER1 whole entry): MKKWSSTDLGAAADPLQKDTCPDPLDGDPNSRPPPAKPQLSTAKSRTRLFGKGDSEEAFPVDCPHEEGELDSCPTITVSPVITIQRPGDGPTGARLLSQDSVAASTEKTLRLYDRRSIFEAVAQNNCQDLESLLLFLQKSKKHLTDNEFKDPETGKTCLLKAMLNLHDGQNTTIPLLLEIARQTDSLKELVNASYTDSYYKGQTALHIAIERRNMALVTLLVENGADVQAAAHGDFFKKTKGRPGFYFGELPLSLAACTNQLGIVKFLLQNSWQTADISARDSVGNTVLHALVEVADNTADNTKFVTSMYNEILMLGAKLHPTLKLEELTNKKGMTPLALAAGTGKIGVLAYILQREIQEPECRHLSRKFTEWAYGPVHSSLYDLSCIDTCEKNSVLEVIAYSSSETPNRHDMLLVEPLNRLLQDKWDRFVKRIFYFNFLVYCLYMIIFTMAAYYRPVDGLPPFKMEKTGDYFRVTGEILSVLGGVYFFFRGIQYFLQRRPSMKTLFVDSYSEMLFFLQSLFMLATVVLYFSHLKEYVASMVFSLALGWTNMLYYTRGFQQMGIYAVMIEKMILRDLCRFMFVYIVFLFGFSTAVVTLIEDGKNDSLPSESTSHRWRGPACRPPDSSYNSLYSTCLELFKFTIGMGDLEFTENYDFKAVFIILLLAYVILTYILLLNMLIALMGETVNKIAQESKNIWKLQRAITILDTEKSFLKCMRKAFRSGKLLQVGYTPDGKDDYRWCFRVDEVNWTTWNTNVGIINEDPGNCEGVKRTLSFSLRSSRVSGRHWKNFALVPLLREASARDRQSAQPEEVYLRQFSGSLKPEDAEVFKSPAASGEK
The assay is described as follows: [3H] RTX binding assay, hVR1 membranes from transfected HEK293 cells. The following applies: human VR1, read-out: Receptor binding Ki. How it is done:
Compounds of the present invention were tested for their ability to inhibit the binding of [^3H] RTX to hVR1 receptors in a [^3H] RTX binding assay as previously described (Zhang, Sui-Po. Improved ligand binding assays for vanilloid receptors. PCT Int. Appl. (2002), 29 pp. CODEN: PIXXD2 WO 0233411 A1 20020425 AN 2002:315209; Grant, Elfrida R.; Dubin, Adrienne E.; Zhang, Sui-Po; Zivin, Robert A.; Zhong, Zhong Simultaneous intracellular calcium and sodium flux imaging in human vanilloid receptor 1 (VR1)-transfected human embryonic kidney cells: a method to resolve ionic dependence of VR1-mediated cell death. Journal of Pharmacology and Experimental Therapeutics (2002), 300(1), 9–17.)
HEK293 cells were transfected with human VR1 vanilloid receptors and washed with Hank's Balanced Salt Solution, dissociated with cell dissociation buffer (Sigma), and then centrifuged at 1000×g for 5 min. Cell pellets were homogenized in cold 20 mM HEPES buffer, pH 7.4, containing 5.8 mM NaCl, 320 mM sucrose, 2 mM MgCl2, 0.75 CaCl2 and 5 mM KCl and centrifuged at 1000×g for 15 min. The resultant supernate was then centrifuged at 40000×g for 15 min. The pelleted membranes were kept in an −80° C. freezer.
Approximately 120 μg protein/ml from membranes were incubated with indicated concentrations of [^3H] RTX in 0.5 ml of the HEPES buffer (pH 7.4) containing 0.25 mg/mL fatty acid-free bovine serum albumin at 37° C. for 60 min. The reaction mixture was then cooled to 4° C., 0.1 mg α1-acid glycoprotein added to each sample and incubated at 4° C. for 15 min. The samples were centrifuged at 18500×g for 15 min. The tip of the microcentrifuge tube containing the pellet was cut off. Bound radioactivity was quantified by scintillation counting. Non-specific binding was tested in the presence of 200 nM unlabeled RTX.

The next assay addresses T3, VR1 (rat spinal cord) (Rattus norvegicus, UniProt O35433).
T3 construct: Rat spinal cord was homogenized twice with a Polytron; from tissue; host or cells: rat spinal cord membranes
The assay is described as follows: [3H]-RTX binding assay using rat tissue (spinal cord membranes). To be noted: cells marked (rat), read-out: Receptor binding Ki (rat). How it is done:
Alternatively, a binding assay using rat tissue was used. Rat spinal cord was homogenized twice with a Polytron and centrifuged at 3000 rpm for 10 min in HEPES buffer containing 20 mM HEPES, pH 7.4, NaCl 5.8 mM, sucrose 320 mM, MgCl2 2 mM, CaCl2 0.75 mM and KCl 5 mM. The supernatant was then centrifuged at 18,000 rpm for 20 min. The pellet was saved in a tube and 10 ml assay buffer was added into the tube. The pellet and buffer were mixed with a Polytron. The assay contained 120 μg/ml membrane protein and 0.3–0.6 nM [^3H]-RTX (NEN, Boston) in a total volume of 0.5 ml HEPES buffer. Following-incubation for 60 min at 37 C, the samples were cooled down on ice, and 100 mg of α-acid glycoprotein were added into the samples. After centrifugation at 13,000 rpm for 15 min, the supernatant was aspirated and the tips of tubes were cut off and placed into 6 ml vials. Data were calculated according to the equation: % inhibition=(total binding−binding)*100/(total binding−non specific binding). Ki value values were calculated using a Prism program.

Assay [3] has as its system Carrageenan paw-induced thermal hyperalgesia. The assay can be described thus: Carrageenan paw-induced thermal hyperalgesia. The class given is in vivo. The following applies: rat, po, reversal of carrageenan thermal hyperalgesia; read-out: CgHP ED50. As for the experimental part:
Each rat is placed on a heated surface (51° C.) in order to measure the time necessary to elicit a response, and an initial (baseline) response time to a thermal stimuli was recorded for each animal. A response is defined as any shaking, licking, or tucking of the treated paw or jumping. Animals not treated with a test compound respond in approximately 20 seconds. The maximal exposure time permitted is 60 seconds to prevent tissue damage. Rats were injected with an irritant (e.g., 1% carrageenan solution in 0.9% saline) subcutaneously into the sub-plantar tissue of the left hind paw to stimulate an acute inflammatory reaction.
Two hours later, the response time of the animal to the thermal stimulus was evaluated and compared to the animal's baseline response time. This shorter response time was recorded as percent hyperalgesia (% H). A cut-off value for % H (usually 75%) was used during analysis to ensure that the animals were hyperalgesic. Animals were then dosed with test drug or vehicle.
At some time(s) later (typically 45 and 90 minutes), the response time of the animal to the thermal stimulus was again evaluated. For each time point, a percent reversal of hyperalgesia (% R) was calculated using the following formula: % R=(Drug Latency−Carrageenan latency)/(Baseline latency−Carrageenan latency). ED50 values were calculated from % R obtained at several drug doses.
Background: In the carrageenan paw model, swelling and tenderness develop within hours.

The next assay addresses T4, human VR1 (Homo sapiens, UniProt Q8NER1).
T4 construct: expressed in transfected cells; host or cells: HEK293
The assay is described as follows: Human VR1 functional assay (FLIPR intracellular Ca2+, capsaicin challenge). The class given is cell-based. The following applies: read-out: In vitro functional assays hIC50 or EC50. How it is done:
The functional activity of the test compounds was determined by measuring changes in intracellular calcium concentration using a Ca^++-sensitive fluorescent dye and FLIPR™ technology.
HEK293 Cells expressing human VR1 were grown on poly-D-lysine coated 96 well black-walled plates (BD 354640) and 2 days later loaded with Fluo-3/AM for 1 hour and subsequently tested for agonist-induced increases in intracellular Ca^2+ levels using FLIPR™ technology. […] EC50 or IC50 values were determined from dose-response studies.

The subject of assay [4] is capsaicin-induced guinea pig bronchial ring contraction. The assay is described as follows: Isolated guinea pig bronchial rings, capsaicin-induced contraction (organ bath). How it is done: Aminotetralin VR1 antagonists were tested for their potency to block capsaicin-induced guinea pig bronchial ring contraction in a standard in vitro organ bath assay [Tucker, 2001]. Two mm rings of bronchial tissue obtained from male guinea pigs (325 g) were suspended in normal Krebs solution between two wire hooks under an initial loading tension of 1 gram. The saline was maintained in a 5% CO2 and 95% O2 atmosphere at 37° C. in the presence of indomethacin (5 μM). A sub-maximal dose of 5-Methylfurmethide (5Mef, 1 μM) was added to each tissue to determine responsiveness using an isometric force transducer. After washout, tissues were exposed to compounds or vehicle for 30 min, treated with thiorphan (10 μM, 5% Na2CO3), and primed using KCl in increasing linear concentrations from 1 mM at 1 mM intervals until a slight increase in muscle tone was induced (˜1% of 5Mef response). […] The dose response curve was calculated as % max of the 5-Mef response and estimated pA2 were determined [Tucker, 2001]).

Assay [5] relates to DSS-induced acute colitis. The assay can be described thus: Rodent colitis model (5% dextran sulfate sodium). The class given is in vivo, mice or rats. The following applies: preliminary study. As for the experimental part:
5% Dextran Sulfate Sodium administered in the drinking water of mice or rats for 7 days results in an acute colitis with some morphological changes that are similar to human ulcerative colitis. Among those changes are colon shortening, accumulation of neutrophils and other inflammatory cells, decreases in colon weight, decreases in body weight, tissue damage in the colon, and loss of stool consistency.
Each animal is dosed daily in the morning and late afternoon for BID dosing. Treatment with vehicle or test compound begins on day 0, immediately after initial body weights are taken, and ends on day 6. Water bottles are removed and replaced by graduated water bottles containing 5% DSS in indicated groups. Tap water remains on control groups only. Sufficient DSS drinking water is placed in graduated water bottles and refilled each day to monitor daily output. Animals are weighed daily from day 0 to 7, and animal condition and the consistency of stools recorded. Following sacrifice of the animal on day 7, the colon is surgically removed from the distal rectum (anus) to the cecal-colonic juncture and the colon length and weight measured. Colon slices may be obtained for histological evaluation. […] Water consumption and body weights are measured daily. […] An increase in myeloperoxidase activity occurs in this model and is evaluated separately.

Assay [6] relates to capsaicin-induced cough responses. The assay is described as follows: Capsaicin-induced cough (antitussive efficacy). Format: in vivo. To be noted: guinea pig, 25 mg/kg IP at -60 min; vehicle 3.0±0.5; P<0.001. As for the experimental part: The antitussive activity of intraperitoneally (IP) administered compound is assessed at a single dose level against casaicin-induced cough responses as compared to positive and vehicle controls. Thirty-six male Dunkin-Hartley guinea pigs (295–590 g, mean 425 g) are randomly allocated to one of three groups (n=12 guinea pigs per group). […] Guinea pigs are dosed IP at −60 min with vehicle (15% Solutol in 5% dextrose solution); the positive control codeine (25 mg/kg), or test compound (20 mg/kg in 15% Solutol in 5% dextrose solution). Individual guinea pigs are placed in an exposure chamber with an airflow of 3 L/min at −10 min to acclimatize. […] The mean±SEM number of capsaicin-induced cough responses recorded in vehicle pre-treated guinea pigs was 3.0±0.5. […] ANOVA statistical analysis was used to determine the level of significance.

T4 sequence (Q8NER1 whole entry): as above
T3 sequence (O35433 whole entry): as the sequence (O35433 whole entry) above

On to `O=C(NCc1ccc(C(F)(F)F)cc1)Nc1cccc2c(Cl)nccc12` [Compound 55, 1-(1-Chloro-isoquinolin-5-yl)-3-(4-trifluoromethyl-benzyl)-urea], for which the Kb in assay [1] was under 30 nM. In assay [2], the Ki is 7.35 nM.
In the case of `O=C(NCc1ccc(-c2cccs2)s1)Nc1cccc2ccc(O)cc12` [Compound 39], the inhibitory constant (Ki) on VR1 (rat spinal cord) amounted to 382 nM.
`CC(C)(C)c1ccc(CNC(=O)Nc2cccc3cnccc23)cc1` [Compound 33]: the 50% effective dose (ED50) in assay [3] worked out at 0.276 mg/kg. At human VR1, the IC50 or EC50 is 2.7 nM. Further, in assay [4], the “antagonist Kb (from pA2) against capsaicin-induced contraction” value is listed as 13 nM. In addition, in assay [5], the “protection against colon shortening” value is given as “did not protect” and the “protection against colon weight loss” value is reported as “did not protect”. For the same compound, the Ki in assay [2] came to 0.26 nM.
As to `O=C(NCc1ccc(C(F)(F)F)cc1)Nc1cccc2ccc(O)cc12` [Compound 17], in assay [3], the ED50 amounted to 20 mg/kg. Besides, the IC50 or EC50 at human VR1 amounted to 4 nM. The Ki in assay [2] was 0.1 nM.
Take `O=C(NCc1ccc(Cl)c(C(F)(F)F)c1)Nc1cccc2ccc(O)cc12` [Compound 57, 1-(4-Chloro-3-trifluoromethyl-benzyl)-3-(7-hydroxy-naphthalen-1-yl)-urea]: the ED50 in assay [3] is 0.354 mg/kg. Also, the Kb in assay [1] is about 10 nM. Further, the inhibition constant (Ki) in assay [2] was 1.14 nM.
Take `COc1ccc2c3c1O[C@H]1[C@@H](O)C=C[C@H]4[C@@H](C2)N(C)CC[C@@]341` [codeine]: the “number of capsaicin-induced cough responses (mean±SEM)” value in assay [6] was found to be 0.58±0.15 coughs.
Take `O=C(NCc1ccc(C(F)(F)F)cc1)Nc1cccc2cnccc12` [Compound 4]: the median effective dose (ED50) in assay [3] is 0.804 mg/kg. The inhibition constant (Ki) in assay [2] was found to be 6.87 nM.
